Test results published in ChEMBL document CHEMBL1129352, “Synthesis and biological evaluation of new imidazole, pyrimidine, and purine derivatives and analogs as inhibitors of xanthine oxidase” (J Med Chem, 1996).

target: T1, Xanthine dehydrogenase/oxidase (Homo sapiens, UniProt P47989); assay: Inhibitory activity against Xanthine Oxidase
T1 sequence (P47989 whole entry): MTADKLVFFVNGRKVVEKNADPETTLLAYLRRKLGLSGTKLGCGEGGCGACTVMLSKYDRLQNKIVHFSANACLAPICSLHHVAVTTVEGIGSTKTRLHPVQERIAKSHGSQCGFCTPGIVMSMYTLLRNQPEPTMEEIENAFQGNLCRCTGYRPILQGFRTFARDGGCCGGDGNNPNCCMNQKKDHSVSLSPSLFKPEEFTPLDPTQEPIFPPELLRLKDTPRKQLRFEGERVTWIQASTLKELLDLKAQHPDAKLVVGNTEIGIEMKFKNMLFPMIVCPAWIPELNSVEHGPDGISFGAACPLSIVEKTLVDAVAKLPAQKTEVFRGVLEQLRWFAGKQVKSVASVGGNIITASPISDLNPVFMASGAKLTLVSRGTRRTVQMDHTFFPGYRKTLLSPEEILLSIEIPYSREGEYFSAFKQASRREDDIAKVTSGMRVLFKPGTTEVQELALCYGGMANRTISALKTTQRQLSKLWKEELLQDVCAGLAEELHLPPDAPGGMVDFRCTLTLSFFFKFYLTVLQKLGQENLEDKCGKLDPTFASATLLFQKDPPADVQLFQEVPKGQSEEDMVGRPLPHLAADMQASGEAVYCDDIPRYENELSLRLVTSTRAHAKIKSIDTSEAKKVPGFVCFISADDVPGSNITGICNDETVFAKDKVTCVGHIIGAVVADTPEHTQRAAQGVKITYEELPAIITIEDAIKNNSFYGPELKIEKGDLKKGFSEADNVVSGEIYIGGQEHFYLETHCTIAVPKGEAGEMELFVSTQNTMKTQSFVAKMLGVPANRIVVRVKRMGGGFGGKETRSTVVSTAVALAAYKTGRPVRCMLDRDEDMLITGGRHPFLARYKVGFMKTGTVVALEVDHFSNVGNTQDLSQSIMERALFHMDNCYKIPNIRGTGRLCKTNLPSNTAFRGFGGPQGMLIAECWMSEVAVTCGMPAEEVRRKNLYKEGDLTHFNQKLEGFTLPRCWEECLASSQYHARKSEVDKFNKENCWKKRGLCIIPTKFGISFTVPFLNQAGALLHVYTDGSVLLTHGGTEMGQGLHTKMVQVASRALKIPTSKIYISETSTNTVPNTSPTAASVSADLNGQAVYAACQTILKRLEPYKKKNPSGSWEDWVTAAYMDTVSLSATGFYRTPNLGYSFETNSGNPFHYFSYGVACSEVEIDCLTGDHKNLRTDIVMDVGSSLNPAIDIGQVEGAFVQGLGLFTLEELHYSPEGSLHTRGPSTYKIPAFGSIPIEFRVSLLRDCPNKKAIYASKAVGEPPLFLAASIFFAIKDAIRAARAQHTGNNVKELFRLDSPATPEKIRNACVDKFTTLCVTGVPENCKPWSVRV

SMILES | IC50 | Ki
CCCCCC(=O)Nc1nc[nH]c1C(N)=O | 12.6 µM | 2.56 µM
Oc1nc2nc3n(c(O)c-2n1)CCCS3 |  | 66.8 µM
CCCCc1nc(O)c2c[nH]nc2n1 | > 100 µM | 
CCCCCCNc1nc(O)c2[nH]cnc2n1 | 30.5 µM | 32.1 µM
CCCc1nc2n[nH]cc2c(=O)[nH]1 | > 100 µM | 
CCCCCCOC(=O)C(=O)Nc1nc[nH]c1C(N)=O | 1.11 µM | 0.26 µM
Oc1nc2nc3n(c(O)c-2n1)CCS3 |  | 40.3 µM
CCCCCNc1nc2nc[nH]c2c(=O)[nH]1 | 28.3 µM | 25.7 µM
CCCCNc1nc(O)c2[nH]cnc2n1 | 25.5 µM | 17.7 µM
CCCCOC(=O)C(=O)Nc1nc[nH]c1C(N)=O | 4.29 µM | 1.06 µM
CCCCCCSc1nc(N)c(NC=O)c(=O)[nH]1 | > 100 µM | 
CCc1nc(O)c2c[nH]nc2n1 | > 100 µM | 
Oc1nc2nc(O)n3c(c-2n1)SCCC3 |  | 0.33 µM
O=c1[nH]c2nc(S(=O)(=O)Cc3ccccc3)[nH]c(=O)c2[nH]1 |  | 77.8 µM
CCCCSc1nc2nc[nH]c2c(=O)[nH]1 | 3.88 µM | 0.176 µM
Oc1nc2nc(O)n3c(c-2n1)SCC3 |  | 1.26 µM
O=c1nc2[nH]c(=S)[nH]c2c2n1CCS2 |  | 1.86 µM

SMILES | IC50 | Ki
CCCCCOC(=O)C(=O)Nc1[nH]cnc1C(N)=O | 1.92 µM | 1.04 µM
CCCCCc1nc2n[nH]cc2c(=O)[nH]1 | > 100 µM | 
Oc1nc2nc(-c3ccccc3)nc-2c2n1CCCS2 |  | 93 µM
CCCCCSc1nc(N)c(NC=O)c(=O)[nH]1 | > 100 µM | 
CCCC(=O)Nc1nc2nc[nH]c2c(=O)[nH]1 | > 100 µM | 
Oc1c2nc(S)nc-2nc2n1CCCS2 |  | 131 µM
CSc1nc2nc(-c3ccccc3)[nH]c2c(=O)[nH]1 |  | 5.7 µM
CC1CSc2nc3nc(S)nc-3c(O)n2C1 (stereo not drawn) |  | > 100 µM
CCCCCCSc1nc(O)c2[nH]c(O)nc2n1 |  | 0.16 µM
O=c1[nH]c2nc(SCc3ccccc3)[nH]c(=O)c2[nH]1 |  | 4.49 µM
Oc1c2nc(S)nc-2nc2n1CCS2 |  | 24.4 µM
CC1CSc2nc3nc(O)nc-3c(O)n2C1 (stereo not drawn) |  | > 100 µM
CCCCCCSc1nc2nc(-c3ccccc3)[nH]c2c(=O)[nH]1 |  | 0.48 µM
Oc1nc2nnnc-2c2n1CCCS2 |  | > 100 µM
O=c1[nH]c(=S)[nH]c2nc(-c3ccccc3)[nH]c12 |  | 2.07 µM
CCCCSc1nc(N)c(NC=O)c(=O)[nH]1 | > 100 µM | 

target: Xanthine dehydrogenase/oxidase (Bos taurus) (UniProt P80457); assay: Inhibitory activity against Xanthine Oxidase
Sequence (P80457 whole entry, looked up): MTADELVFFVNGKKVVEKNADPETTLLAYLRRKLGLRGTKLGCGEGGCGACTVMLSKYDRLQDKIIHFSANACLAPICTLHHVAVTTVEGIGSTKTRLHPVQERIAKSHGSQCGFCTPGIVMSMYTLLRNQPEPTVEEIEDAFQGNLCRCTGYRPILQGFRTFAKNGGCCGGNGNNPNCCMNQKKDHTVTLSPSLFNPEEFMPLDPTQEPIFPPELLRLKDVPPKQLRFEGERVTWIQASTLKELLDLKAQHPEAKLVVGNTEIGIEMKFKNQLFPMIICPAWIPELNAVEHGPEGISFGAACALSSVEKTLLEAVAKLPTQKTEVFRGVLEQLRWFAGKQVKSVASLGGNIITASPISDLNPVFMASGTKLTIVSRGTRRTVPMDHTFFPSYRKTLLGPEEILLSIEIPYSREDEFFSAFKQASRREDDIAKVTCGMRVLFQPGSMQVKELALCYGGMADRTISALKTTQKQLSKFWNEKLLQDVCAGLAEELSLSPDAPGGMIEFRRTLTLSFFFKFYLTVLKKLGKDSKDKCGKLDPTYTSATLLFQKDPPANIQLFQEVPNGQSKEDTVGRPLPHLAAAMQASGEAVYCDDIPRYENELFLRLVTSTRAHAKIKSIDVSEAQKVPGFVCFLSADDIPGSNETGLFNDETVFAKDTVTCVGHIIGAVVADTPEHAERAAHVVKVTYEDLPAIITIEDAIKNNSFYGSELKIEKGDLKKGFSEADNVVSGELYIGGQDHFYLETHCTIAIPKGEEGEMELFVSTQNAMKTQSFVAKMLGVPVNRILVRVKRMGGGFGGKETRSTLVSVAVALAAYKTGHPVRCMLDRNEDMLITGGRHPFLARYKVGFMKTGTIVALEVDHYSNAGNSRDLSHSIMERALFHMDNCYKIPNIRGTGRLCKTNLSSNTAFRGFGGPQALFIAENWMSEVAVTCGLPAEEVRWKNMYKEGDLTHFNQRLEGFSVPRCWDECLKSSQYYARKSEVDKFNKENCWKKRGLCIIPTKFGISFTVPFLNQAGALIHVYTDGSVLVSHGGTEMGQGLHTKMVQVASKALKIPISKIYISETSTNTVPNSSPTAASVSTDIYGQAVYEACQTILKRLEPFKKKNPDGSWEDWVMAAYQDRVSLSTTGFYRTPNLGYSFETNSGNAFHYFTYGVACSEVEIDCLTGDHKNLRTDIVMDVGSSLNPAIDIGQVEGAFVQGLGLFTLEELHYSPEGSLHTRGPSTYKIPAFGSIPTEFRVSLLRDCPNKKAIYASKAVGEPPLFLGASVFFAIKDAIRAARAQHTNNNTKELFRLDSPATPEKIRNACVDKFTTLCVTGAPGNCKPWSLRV

SMILES | Ki
Oc1nc2nc(S)nc-2c2n1CCCS2 | 0.89 µM

target: T1, Xanthine dehydrogenase/oxidase; assay: Inhibitory activity against Xanthine Oxidase; Inactive

SMILES | IC50 | Ki
CCCCCC(=O)Nc1nc(O)c2[nH]cnc2n1 | Not Active | 
CCCCSc1nc(N)cc(O)n1 | Not Active | 
CCCCCSc1nc(N)cc(O)n1 | Not Active | 
O=S1(=O)CCCn2c1nc1nc(O)nc-1c2O |  | Not Active
CCCCC(=O)Nc1nc(O)c2[nH]cnc2n1 | Not Active | 
CCCCCCSc1nc(N)cc(O)n1 | Not Active | 
